Assay results: patent publication US4902791A, “Nitrosourea derivatives, process for their preparation and medicaments containing them” (Sanofi S.A., priority 1983, dated 1990)
Converted amounts (≈) assume the structure as drawn.

Key:
[1] = MONTERO et al; cited from earlier work
[2] = tested on: L 1210 leucemia; settings: IMBACH et al; cited from earlier work
[3] = tested on: L 1210 cell; assay: 20% cytotoxic index, trypan blue exclusion, 24 h (TEST N° 1); assay type: cell-based, mouse; settings: Mus musculus, read-out: DOSE COR[…] A 20% CYTOTOXIC INDEX; L1210 cells, 24 hours at 37° C.; read-out: DOSE CORRESPONDING TO A 20% CYTOTOXIC INDEX
Experimental: (§1) The test used is that of W. J. Durkin et al. Cancer Research 1979, 39, 402-407, modified.
(§2) All the nitrosoureas were dissolved in 70% ethanol in the proportion of 10 mg/ml.
1--Determination of the 20% cytotoxic index
100 μl of an L 1210 cell suspension (10^6 cells per ml) in R P M I 1640 culture medium supplemented with 10% of fetal calf serum and 40 μg/ml of gentamycin, containint various doses of the products to be tested (0 to 100 μg/ml) were incubated 24 hours at 37° C. At the end of this time, the cell viability is determined by the trypan blue exclusion test. The cytotoxic index is defined by the formula: [formula]
The amount of ethanol is the same in the cultures containing the products to be tested and in the control cultures (this amount has no effect either on growth nor on cell viability).
For each product the dose which gives a cytotoxic index of 20% is determined.

[4] = tested on: leucemia L1210; assay: effective "in vivo" activity in the mouse, leucemia L1210, compound 2, i.p. days 1, 5, 9
Experimental: The experimentation which is reported below used the compound 2 prepared according to the above example 6 (Ref. IC 81 1183).
The mice (female, average weight 20 g) used were F1 /DBA2 /C57 /B1 (Animal selection and breeding center of the Laboratories of the CNRS, Orleans, La Source).
The mice distributed in cages by drawing lots were inoculated on day "0" with 10^5 leucemia L1210 cells.
The animals were treated with the compound IC 81 1183 intraperitoneally on days 1, 5 and 9.
The suspensions were prepared just before the injection: product 2+neutralized and sterilized olive oil.
The mortality of the animals was observed regularly, the relative increase in the survival (T/C×100) was calculated from the average survival of the treated animals (T) and that of the control animals (C).

[5] = tested on: Tumor LEWIS 3LL; assay: "in vivo" activity on Lewis tumor, 20 mg/kg i.p. days 1, 5, 9; design: species or system mouse
Experimental: Procedure was under the conditions which have just been described previously with regard to melanoma B16, by injecting the tumor cells, in the proportion of 2×10^6 per mouse, in the volume of 0.2 ml.
(§3) The protocol was identical for the 3 tumors and the 5 compounds of the invention to be tested.
(§4) As regards the experimental series to be treated, each mouse received, at days 1, 5 and 9, intraperitoneally, a dose of 20 mg/kg of the compound to be tested, in the volume of 0.2 ml of neutralized and sterilized olive oil.
(§5) As regards the control series, each mouse received, intraperitoneally, 0.2 ml of neutralized and sterilized olive oil.
(§6) The results are expressed by the relative increase in survival (T/C×100) calculated from the average survival of the treated animals (T) and that of the control animals (C)
(§7) The mice surviving more than 60 days were considered as cured.
(§8) The figures between parentheses indicate the percentage of cured mice.

[6] = tested on: L 1210 cells; assay: cytotoxic index after 1 h contact, potential "in vivo" activity (TEST N° 2); assay type: cell-based, mouse
Experimental: as §1, §2
2--Determination of the potential "in vivo" activity
L 1210 cells, under conditions similar to the preceding protocol, were contacted for 1 hour with a dose of the various products tested corresponding to a cytotoxic index equal to 20%. After this time, the cells were placed in culture medium not containing nitrosoureas and incubated at 37° C. After 48 hours, the cytotoxic index was determined.

[7] = tested on: leucemia L 1210 IGR; assay: "in vivo" activity on leucemia L1210 IGR, 20 mg/kg i.p. days 1, 5, 9; design: species or system mouse
Experimental: Female DBA2 mice were used, about 8 weeks old and weighing about 20 g from the IFFA-CREDO center (les Oncins, 69210 Arbresles)
At day "0", each mouse received intraperitoneally an inoculum of […] in a volume of 0.2 ml.
After tumoral graft, the mice were distributed at random into 21 cages of 5 animals, themselves then distributed, by drawing lots, into 6 experimental series. Within these 6 experimental series, there were constituted a control series of 6 cages and 5 experimental series of 3 cages each, and of which the mice were intended to be treated by the compounds of the invention.
as §3, §4, §5, §6, §7, §8

[8] = tested on: L 1210 USA Tumor; assay: "in vivo" activity on L1210 U.S.A. tumor, 5 mg/kg i.p. days 1, 5, 9; design: species or system mouse
Experimental: The tumor L1210 U.S.A. is more resistant than tumor L1210 IGR.
(§9) The experiments were identical to those described in preceding paragraph 4 but lower doses were used.
There were inoculated into the mice, 10^5 tumor cells of L1210 U.S.A. intraperitoneally in a volume of 0.2 ml.
At days 1, 5 and 9, the compounds of the invention under test were injected intraperitoneally, at a lower dose than that used in the experiment described at 4, that is to say in the proportion of 5 mg/kg.

[9] = tested on: L 1210 IGR TUMOR; assay: "in vivo" activity on L1210 IGR tumor, 5 mg/kg i.p. days 1, 5, 9; design: species or system mouse
Experimental: as §9
The same protocol was carried out with the tumor L1210 IGR, by inoculating 10^5 tumor cells of L1210 IGR intraperitoneally in the volume of 0.2 ml then, at days 1, 5 and 9, there were injected intraperitoneally 5 mg/kg of each of the compounds to be tested.

[10] = tested on: melanoma B16; assay: "in vivo" activity on melanoma B16, 20 mg/kg i.p. days 1, 5, 9; design: species or system mouse
Experimental: Female C57 B 1/6 mice were used, about 8 weeks old and weighing about 20 g, from the IFFA-CREDO center.
At day "0", each mouse received intraperitoneally an inoculum of 2×10^6 tumor cells in a volume of 0.5 ml.
After tumoral graft, distribution at random was carried out as indicated above, to obtain a control series of 8 cages and 5 experimental series of 4 cages each, and of which the mice were intended to be treated by the compounds of the invention.
as §3, §4, §5, §6, §7, §8

[11] = compared with literature curves

O=NN(CCCl)C(=O)N[C@@H]1O[C@H](CO)[C@@H](O)[C@H](O)[C@H]1O [1-[3-(2-chloro-ethyl) 3-nitroso-ureido]-1-beta-D-glucopyranose]
toxicity on the bone marrow [1]: lower toxicity on the bone marrow

CC(=O)OC[C@H]1O[C@@H](NC(=O)N(CCCl)N=O)[C@H](OC(C)=O)[C@@H](OC(C)=O)[C@@H]1OC(C)=O [2,3,4,6-tetra-O-acetyl 1-[3-(2-chlor-ethyl)nitroso-3-ureido]-1-desoxy-beta-D-glucopyranose]
toxicity on the bone marrow [1]: lower toxicity on the bone marrow

CC(=O)OC[C@H]1OC(OC(C)=O)[C@H](NC(=O)N(CCCl)N=O)[C@@H](OC(C)=O)[C@@H]1OC(C)=O (some centres unmarked) [GCNU, 3-(2-chloro-1-ethyl-2'-desoxy-glucopyranosyl-14,3',4",6'-tetracetate)nitrosourea]
oncostatic action on L 1210 leucemia [2]: oncostatic action

CO[C@@H]1C[C@@H](NC(=O)N(CCCl)N=O)[C@H](O)[C@@H](C)O1 [IC 1183, Methyl 3-[3-(2-chloroethyl) 3-nitrosoureido] 2,3,6-tridesoxy α-D-arabinohexopyranoside]
IC20 [3]: 50 µg/mL (≈ 169 µM) | T/C (×100) ([4]; 1.25 mg/kg i.p. days 1, 5, 9): 118 | T/C (×100) ([4]; 2.50 mg/kg i.p. days 1, 5, 9): 158 | T/C (×100) ([4]; 5 mg/kg i.p. days 1, 5, 9): 170 | T/C (×100) ([4]; 10 mg/kg i.p. days 1, 5, 9): 220 | T/C (×100) ([4]; 20 mg/kg i.p. days 1, 5, 9): 00 (T/C=00: for definition: more than 50% of the treated animals were finally cured) | T/C (×100) ([4]; 40 mg/kg i.p. days 1, 5, 9): 00 (T/C=00: for definition: more than 50% of the treated animals were finally cured) | T/C (×100) ([4]; 50 mg/kg i.p. days 1, 5, 9): 100 | T/C above 40 mg/kg ([4]; after 40 mg/kg, rise in toxicity): sudden drop of the T/C | curve of efficiency vs CCNU and Me CCNU [4, 11]: very distinctly higher than those obtained by CCNU and Me CCNU | curve of efficiency vs RFCNU and RPCNU [4, 11]: as good as that obtained with RFCNU and RPCNU | animals cured finally ([4]; doses of 20 and 40 mg/kg): all the animals at doses of 20 and 40 mg/kg were cured finally | Toxicity ([4]; ≥60 mg/kg i.p. days 1, 5, 9): Toxicity | relative increase in survival (T/C×100) [5]: .infin. (The sign 00 indicates that 50% at least of the mice were cured) | percentage of cured mice ([5]; surviving more than 60 days): 75% | CYTOTOXIC INDEX ([6]; 1 hour contact at dose giving 20% index, read after 48 hours): 77% | POTENTIAL "IN VIVO" ACTION ([6]; active if cytotoxic index ≥40%): + (if the cytotoxic index was equal to or greater than 40%, the product concerned would be active "in vivo" in the mouse) | relative increase in survival (T/C×100) [7]: .infin. (The sign 00 indicates that 50% at least of the mice were cured) | percentage of cured mice ([7]; surviving more than 60 days): 100% | Average survival ±2 σm [8]: 13,5 ± 0,91 | Median survival [8]: 14,0 | T/C × 100 (average survival) [8]: 157 | T/C × 100 (median survival) [8]: 161 | Average survival ±2 σm [9]: 18,7 ± 1,30 | Median survival [9]: 19 | T/C × 100 (average survival) [9]: 207 | T/C × 100 (median survival) [9]: 210 | relative increase in survival (T/C×100) [10]: 234 | percentage of cured mice ([10]; surviving more than 60 days): 5%

CC1(C)O[C@@H]2[C@@H](COC(=O)c3ccc([N+](=O)[O-])cc3)OC(NC(=O)N(CCCl)N=O)[C@@H]2O1 (some centres unmarked) [RFCNU, 1-(2-chloro-ethyl)3-(ribofuranosyl-2',3'-isopropylidene-5-paranitro benzoate)-nitrosourea]
oncostatic action on L 1210 leucemia [2]: oncostatic action

CC(=O)O[C@@H]1[C@H](OC(C)=O)COC(NC(=O)N(CCCl)N=O)[C@@H]1OC(C)=O (some centres unmarked) [RPCNU, 1-(2-chloro-ethyl) 3-(ribopyranosyl-2',3',4'-triacetate)-nitrosourea]
oncostatic action on L 1210 leucemia [2]: oncostatic action

CC(=O)O[C@H]1[C@H](OC(C)=O)COC(NC(=O)N(CCCl)N=O)[C@@H]1OC(C)=O (some centres unmarked) [XPCNU, 1-(2-chloro-ethyl) 3-(xylopyranosyl 2',3',4'-triacetate)-nitrosourea]
oncostatic action on L 1210 leucemia [2]: oncostatic action
